Laboratory results: patent US11691986B2, “PTEFB inhibiting macrocyclic compounds” (Bayer Aktiengesellschaft, priority 2017, dated 2023)
pIC50: −log10 of the molar value.

Assays:
CDK2/CycE = target: T1, CDK2/CycE (Homo sapiens, UniProt P24941); test: CDK2/CycE high ATP kinase assay (TR-FRET); assay type: biochemical; settings: 2 mM ATP, Method 2b
T1 construct: GST; purchased ProQinase GmbH (Freiburg, Germany); host or cells: insect cells (Sf9)
Experimental: 2b. CDK2/CycE High ATP Kinase Assay
CDK2/CycE-inhibitory activity of compounds of the present invention at 2 mM adenosine-tri-phosphate (ATP) was quantified employing the CDK2/CycE TR-FRET (TR-FRET=Time Resolved Fluorescence Energy Transfer) assay as described in the following paragraphs.
Recombinant fusion proteins of GST and human CDK2 and of GST and human CycE, expressed in insect cells (Sf9) and purified by Glutathion-Sepharose affinity chromatography, were purchase from ProQinase GmbH (Freiburg, Germany). As substrate for the kinase reaction biotinylated peptide biotin-Ttds-YISPLKSPYKISEG (C-terminus in amid form) was used which can be purchased e.g. form the company JERINI peptide technologies (Berlin, Germany).
For the assay 50 nl of a 100 fold concentrated solution of the test compound in DMSO was pipetted into either a black low volume 384 well microtiter plate or a black 1536 well microtiter plate (both Greiner Bio-One, Frickenhausen, Germany), 2 μl of a solution of CDK2/CycE in aqueous assay buffer [50 mM Tris/HCl pH 8.0, 10 mM MgCl2, 1.0 mM dithiothreitol, 0.1 mM sodium ortho-vanadate, 0.01% (v/v) Nonidet-P40 (Sigma)] were added and the mixture was incubated for 15 min at 22° C. to allow pre-binding of the test compounds to the enzyme before the start of the kinase reaction. […] The concentration of CDK2/CycE was adjusted depending of the activity of the enzyme lot and was chosen appropriate to have the assay in the linear range, typical concentrations were about 10 ng/ml. The reaction was stopped by the addition of 3 μl of a solution of TR-FRET detection reagents (0.333 μM streptavidine-XL665 [Cisbio Bioassays, Codolet, France] and 1.67 nM anti-RB(pSer807/pSer811)-antibody from BD Pharmingen [#558389] and 2 nM LANCE EU-W1024 labeled anti-mouse IgG antibody [Perkin-Elmer, product no. AD0077, as an alternative a Terbium-cryptate-labeled anti-mouse IgG antibody from Cisbio Bioassays can be used]) in an aqueous EDTA-solution (167 mM EDTA, 0.2% (w/v) bovine serum albumin in 100 mM HEPES pH 7.5).
The resulting mixture was incubated 1 h at 22° C. to allow the formation of complex between the phosphorylated biotinylated peptide and the detection reagents. Subsequently the amount of phosphorylated substrate was evaluated by measurement of the resonance energy transfer from the Eu-chelate to the streptavidine-XL. Therefore, the fluorescence emissions at 620 nm and 665 nm after excitation at 350 nm was measured in a TR-FRET reader, e.g. a Pherastar (BMG Labtechnologies, Offenburg, Germany) or a Viewlux (Perkin-Elmer). The ratio of the emissions at 665 nm and at […] was taken as the measure for the amount of phosphorylated substrate. The data were normalised (enzyme reaction without inhibitor=0% inhibition, all other assay components but no enzyme=100% inhibition).

HeLa-MaTu-ADR cells = test: Proliferation assay, HeLa-MaTu-ADR (crystal violet); assay type: cell-based; settings: Homo sapiens, 96 h, 4 days, read-out: Inhibition of HeLa-MaTu-ADR cell proliferation IC50
Experimental: (§1) Cultivated tumour cells (HeLa, human cervical tumour cells, ATCC CCL-2; NCI-H460, human non-small cell lung carcinoma cells, ATCC HTB-177; DU 145, hormone-independent human prostate carcinoma cells, ATCC HTB-81; HeLa-MaTu-ADR, multidrug-resistant human cervical carcinoma cells, EPO-GmbH Berlin; Caco-2, human colorectal carcinoma cells, ATCC HTB-37; B16F10, mouse melanoma cells, ATCC CRL-6475) were plated at a density of 5,000 cells/well (DU145, HeLa-MaTu-ADR), 3,000 cells/well (NCI-H460, HeLa), 1,500 cells/well (Caco-2), or 1,000 cells/well (B16F10) in a 96-well multititer plate in 200 μL of their respective growth medium supplemented 10% fetal calf serum. After 24 hours, the cells of one plate (zero-point plate) were stained with crystal violet (see below), while the medium of the other plates was supplemented with the test substances in various concentrations (0 μM, as well as in the range of 0.0001-10 μM; the final concentration of the solvent dimethyl sulfoxide was adjusted to 0.1%) using a Hewlett-Packard HP D300 Digital Dispenser. The cells were incubated for 4 days in the presence of test substances. Cell proliferation was determined by staining the cells with crystal violet: the cells were fixed by adding 20 μl/measuring point of an 11% glutaric aldehyde solution for 15 minutes at room temperature. After three washing cycles of the fixed cells with water, the plates were dried at room temperature. The cells were stained by adding 100 μl/measuring point of a 0.1% crystal violet solution (pH 3.0). After three washing cycles of the stained cells with water, the plates were dried at room temperature. The dye was dissolved by adding 100 μl/measuring point of a 10% acetic acid solution. The extinction was determined by photometry at a wavelength of 595 nm. The change of cell number, in percent, was calculated by normalization of the measured values to the extinction values of the zero-point plate (=0%) and the extinction of the untreated (0 Wm) cells (=100%). The IC50 values (inhibitory concentration at 50% of maximal effect) were determined by means of a 4 parameter fit.

DU145 cells = test: Proliferation assay, DU145 (crystal violet); assay type: cell-based; settings: Homo sapiens, DU-145, 96 h; DU145, 4 days; read-out: Inhibition of DU145 cell proliferation IC50
Experimental: as §1

Structure (SMILES)	pIC50 (CDK2/CycE)	pIC50 (HeLa-MaTu-ADR cells)	pIC50 (DU145 cells)
CC1CCCNc2cc(ccc2F)-c2nc(ncc2F)Nc2cc(CS(C)(=O)=O)cc(c2)O1 (racemic) [Example 8, (rac)-3,20-difluoro-14-methyl-10-[(methylsulfonyl)methyl]-13-oxa-5,7,18,25-tetraazatetracyclo[17.3.1.1^2,6.1^8,12]pentacosa-1(23),2(25),3,5,8(24),9,11,19,21-nonaene]	6.33		
CS(=N)(=O)Cc1cc2cc(c1)OCCCCNc1cc(ccc1F)-c1nc(ncc1F)N2 (racemic) [Example 2, (rac)-3,20-difluoro-10-[(S-methylsulfonimidoyl)methyl]-13-oxa-5,7,18,25-tetraazatetracyclo[17.3.1.1^2,6.1^8,12]pentacosa-1(23),2(25),3,5,8(24),9,11,19,21-nonaene]	6.81	8.28	8.35
CC(C)(C)OC(=O)N=S(C)(=O)Cc1cc2cc(c1)OCCCCNc1cc(ccc1F)-c1nc(ncc1F)N2 (racemic) [Example 1, (rac)-tert-butyl [{[3,20-difluoro-13-oxa-5,7,18,25-tetraazatetracyclo[17.3.1.1^2,6.1^8,12]pentacosa-1(23),2(25),3,5,8(24),9,11,19,21-nonaen-10-yl]methyl}(methyl)oxido-λ^6-sulfanylidene]carbamate]	6.07	7.34	7.44
CS(=N)(=O)Cc1cc2cc(c1)OCCCNc1cc(ccc1F)-c1nc(ncc1F)N2 (racemic) [Example 3, (rac)-3,19-difluoro-10-[(S-methylsulfonimidoyl)methyl]-13-oxa-5,7,17,24-tetraazatetracyclo[16.3.1.1^2,6.1^8,12]tetracosa-1(22),2(24),3,5,8(23),9,11,18,20-nonaene]	6.08	7.64	7.77
